pEC50, pIC50: −log10 of the molar value. Calls of active or inactive are those of the source.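 The calls were made as follows: active = compounds giving half or more protection of infected cells from virus-caused growth loss, again on retest; inactive = the rest.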
System: CEM cells HIV-1 protection, formazan growth assay
Test: NCI AIDS Antiviral Assay
Conditions: for pIC50: measured here: growth of uninfected CEM cells
In short: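 Protection of CEM cells against HIV-1 measured as cell growth via soluble formazan read-out, with five concentrations tested on both infected and uninfected cells; failure to protect may reflect toxicity.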

Work on `CC(=O)Nc1ncc(Sc2ccccc2C(=O)O)s1` yielded a pEC50 of less than 3.70 and a pIC50 of less than 3.70.

`FC(F)(F)c1ccccc1C1SCc2nc3ccccc3n21` (stereo not drawn) was tested, and the outcome was “inactive”.

In the case of `O=C1CC[C@H](O)Cc2ccc(O)c(c2)-c2cc(ccc2O)CC1O` (stereo partly drawn), the pEC50 was less than 3.12 and the pIC50 was 3.14.

For `COc1cc(C[C@H]2C(=O)OCC2Cc2ccc(OC)c(OC)c2)ccc1O` (stereo partly drawn), the pEC50 was less than 3.70 and the pIC50 was 5.26.

Work on `Cc1cn(C2C/C(=N\O)C(CO)O2)c(=O)[nH]c1=O` (stereo not drawn) yielded a pEC50 of 4.90 and a pIC50 of 3.76.

With `O=[N+]([O-])C(=C(Cl)Cl)C(Cl)=C(Cl)Cl` the pEC50 was less than 3.70 and the pIC50 was less than 3.70.

`Cn1c(=O)c(C(=O)NC(=O)OCc2ccccc2)cn(CCCOC(=O)CCCCCCCCC(=O)OCCCn2cc(C(=O)NC(=O)OCc3ccccc3)c(=O)n(C)c2=O)c1=O` was tested, and the pEC50 was less than 4.67 and the pIC50 was less than 4.67.

`COc1ccc2c(c1)C=CC1OC(C(C)=O)(C(C)=O)C(C=O)=CN21` (stereo not drawn) gave a pEC50 of less than 4.10 and a pIC50 of 4.41.

`O=C1c2c(O)cccc2C(C(=O)CCCCC(=O)C2c3cccc(O)c3C(=O)c3c(O)cccc32)c2cccc(O)c21` was tested, and the pEC50 was less than 5.17 and the pIC50 was less than 5.17.

Work on `COc1ccc(/C=C2\N=C3Sc4c(nc[nH]c4=O)N3C2=O)cc1` yielded a pEC50 of less than 3.70 and a pIC50 of less than 3.70.

`CCN1C(=O)C(=O)C(CC)(CC)C1=O` showed a pEC50 of less than 3.70 and a pIC50 of less than 3.70.

Compound `NCc1ccc(O)c(O)c1O` has a pEC50 of less than 3.70 and a pIC50 of 5.03.

`C(=C\c1c2oc(-c3ccccc3)cc(-c3ccccc3)c-2c2ccccc12)/C=C1\c2ccccc2-c2c(-c3ccccc3)cc(-c3ccccc3)[o+]c21` was tested, and the pEC50 was less than 5.17 and the pIC50 was less than 5.17.

`Cc1cccc(C)c1C1(Cl)C(=O)c2ccccc2C1=O` gave a pEC50 of less than 3.70 and a pIC50 of 4.87.

Compound `O=C1NC(CSSCC2NC(=O)N(c3ccccc3)C2=O)C(=O)N1c1ccccc1` (stereo not drawn) has a pEC50 of less than 3.70 and a pIC50 of 5.95.

`CC(C)CCCC(C)[C@H]1CC[C@@H]2[C@H]3CC[C@H]4C[C@@H](CCC=C(c5cc(Cl)c(OCc6ccccc6[N+](=O)[O-])c(C(=O)OCc6ccccc6[N+](=O)[O-])c5)c5cc(Cl)c(OCc6ccccc6[N+](=O)[O-])c(C(=O)OCc6ccccc6[N+](=O)[O-])c5)CC[C@]4(C)[C@@H]3CC[C@]12C` (stereo partly drawn) showed a pEC50 of 3.95 and a pIC50 of less than 3.70.

With `CN1C(=O)C(=O)n2c(cc3ccccc32)C1=O` the pEC50 was less than 5.20 and the pIC50 was less than 5.20.

Work on `C=C1C(C)C2C(Cc3ccccc3)NC(=O)C23OC(=O)/C=C\CC(=O)CCC(C)C/C=C/C3C1O` (stereo not drawn) yielded a pEC50 of less than 4.41 and a pIC50 of 5.84.

For `C/C(=N/NC(=O)c1ccncc1)C(F)(F)F`, the outcome was “inactive”.

With `Cc1ccc(C)c(N2C(=O)C(=O)C(c3nc4ccccc4o3)C(=O)C2=O)c1` the outcome was “inactive”.

`CCCCN=Cc1c(O)c(O)c(C(C)C)c2cc(C)c(-c3c(C)cc4c(C(C)C)c(O)c(O)c(C=NCCCC)c4c3O)c(O)c12` was tested, and the outcome was “inactive”.

With `Nc1ccccc1/C=C/c1ccnc2ccccc12` the pEC50 was 7.20 and the pIC50 was 4.39.

With `O=C1NCCCNCCCNCCCNC(=O)c2cccc1n2` the pEC50 was less than 3.70 and the pIC50 was 3.73.

Work on `Cc1nn(C(=O)Cc2ccccc2)c2c1C(c1ccc(/C=C/c3ccccc3)cc1)SC(N)=N2` (stereo not drawn) yielded a pEC50 of 3.83 and a pIC50 of less than 3.70.

With `COc1ccc(/C=C2\CN(C)Cc3c2nc(N)nc3-c2ccc(OC)cc2)cc1` the pEC50 was less than 4.73 and the pIC50 was less than 4.73.

Compound `Cc1cc(=O)[nH]c(NN2C(Cl)C(=O)C2c2ccc(O)cc2)n1` (stereo not drawn) has a pEC50 of less than 4.37 and a pIC50 of 5.17.

In the case of `C/C(=C\C(=O)O)C(=O)N(C)c1ccccc1I`, the pEC50 was less than 3.70 and the pIC50 was less than 3.70.

Work on `O=C(NC(CO)Cc1ccc(Oc2cc(CC(CO)NC(=O)OCc3ccccc3)ccc2OC(=O)OCc2ccccc2)cc1)OCc1ccccc1` (stereo not drawn) yielded a pEC50 of less than 3.70 and a pIC50 of 4.68.

In the case of `CCOP(=O)(OCC)/C(C#N)=C/c1ccc(CO)o1`, the pEC50 was less than 3.06 and the pIC50 was 3.75.

With `COc1cc(C2C(C(=O)Nc3cc(F)c(F)cc3F)=C(C)NC(C)=C2C(=O)Nc2cc(F)c(F)cc2F)ccc1O` the pEC50 was less than 4.49 and the pIC50 was less than 4.49.

`CN1CSC(=S)N(C)C1` showed a pEC50 of less than 3.70 and a pIC50 of 4.88.

`COCOc1c(OC)c(C2(O)C(=O)N(C)c3ccccc32)c(OCOC)c(OC)c1C1(O)C(=O)N(C)c2ccccc21` (stereo not drawn) gave a pEC50 of less than 3.70 and a pIC50 of 4.37.

`CCOC(=O)/C=C1/Oc2ccccc2C1(C)O` (stereo not drawn) was tested, and the pEC50 was less than 4.37 and the pIC50 was less than 4.37.

For `Cn1ccc(C(=O)NCCCCCNC(=O)c2ccn(C)c(=O)c2O)c(O)c1=O`, the pEC50 was less than 3.70 and the pIC50 was less than 3.70.

For `C=C(C)[C@H]1C2=CC(C(=O)OC)=C(C[C@H](C(=C)C)[C@@H](O)[C@@H](O)C3=C[C@H]1OC3=O)O2`, the pEC50 was less than 3.70 and the pIC50 was 4.03.

In the case of `COc1ccc2nc3ccccc3c(NCCCCCN(CCCl)CCCl)c2c1`, the pEC50 was less than 3.61 and the pIC50 was 6.55.

`COc1cc(N=Nc2ccc(N=Nc3cc(NC(C)=O)c(N=Nc4ccc(S(=O)(=O)O)cc4)cc3S(=O)(=O)O)c(C)c2)c(C)cc1NC(=O)c1ccc(N)cc1` was tested, and the pEC50 was 5.45 and the pIC50 was 3.99.

`O=C(O)c1sccc1-c1cccc2ccccc12` gave a pEC50 of less than 3.70 and a pIC50 of 4.08.

For `N#CC(NCc1cccc(CNC(C#N)c2ccccc2)c1)c1ccccc1` (stereo not drawn), the pEC50 was less than 3.70 and the pIC50 was 4.05.

`COc1cc2c[n+](C)c3c4cc5c(cc4ccc3c2cc1OC)OCO5` showed a pEC50 of less than 4.75 and a pIC50 of 6.36.

Compound `Cc1ccc(N=Nc2ccc(O)c(CN(C)C)c2)cc1C` has a pEC50 of less than 3.70 and a pIC50 of 4.76.

`COc1ccc(C(C(N)=O)N2CCOCC2)cc1` (stereo not drawn) was tested, and the pEC50 was 3.89 and the pIC50 was less than 3.70.

`CCN(CC)c1nnc(CCCCCCCCc2nnc(N(CC)CC)o2)o1` was tested, and the pEC50 was less than 3.70 and the pIC50 was less than 3.70.

In the case of `N#C/C(=C\c1cc(O)c(O)c(O)c1)C(=O)NCCCCNC(=O)/C(C#N)=C/c1cc(O)c(O)c(O)c1`, the pEC50 was less than 3.70 and the pIC50 was 4.21.

With `Cc1nc(-c2cccnc2)sc1C(=O)CC(=O)C(=O)Nc1cccc(NC(=O)C(=O)CC(=O)c2sc(-c3cccnc3)nc2C)n1` the pEC50 was less than 3.56 and the pIC50 was 3.80.

With `NNC(=S)NC1CC(c2ccccc2)Oc2ccccc21` (stereo not drawn) the outcome was “inactive”.

`Cc1cccc(C(=O)c2ccccc2)c1C(=O)O` was tested, and the pEC50 was less than 3.70 and the pIC50 was less than 3.70.

Compound `CC(=O)NC(C)(C)C1CC=C(C)/C(=N\O)C1` (stereo not drawn) has a pEC50 of less than 2.95 and a pIC50 of 3.11.

For `CCN(CC)C(=S)N=Nc1c(O)[nH]c2ccccc12`, the pEC50 was less than 3.70 and the pIC50 was 5.96.

In the case of `O=C(Cc1nc2ccccc2s1)C(=O)Nc1cccc(Cl)c1`, the outcome was “inactive”.

With `C1CCN2CC3CC(CN4CCCCC34)C2C1` (stereo not drawn) the pEC50 was less than 3.12 and the pIC50 was less than 3.12.

`Clc1cc(Cl)nc(Nc2ccc3c(c2)CCC3)n1` was tested, and the pEC50 was less than 3.70 and the pIC50 was 4.55.

`COc1ccc(OC2OC(CO)C(OCc3ccccc3)C(OCc3ccccc3)C2OCc2ccccc2)cc1` (stereo not drawn) was tested, and the pEC50 was less than 3.70 and the pIC50 was 4.92.

In the case of `CN1C(c2ccccc2)=CC(=O)C(O)=C(c2ccccc2)S1(=O)=O`, the pEC50 was less than 3.70 and the pIC50 was less than 3.70.

`CCOc1ccccc1N=Nc1c(-c2ccccc2)nn(C(=O)CC(=O)Nc2cccc(C)c2)c1-c1ccccc1` gave a pEC50 of less than 4.60 and a pIC50 of less than 4.60.

`NCc1c(C(N)=O)ncn1Cc1ccccc1` was tested, and the outcome was “inactive”.

`Nc1c(C(=O)N/N=C/c2ccccc2)sc(=S)n1-c1ccccc1` was tested, and the pEC50 was less than 5.39 and the pIC50 was less than 5.39.

With `Nn1c(Sc2nc3ccccc3c(=O)n2N)nc2ccccc2c1=O` the pEC50 was less than 3.70 and the pIC50 was 5.42.

With `O=C(CC1C(=O)Nc2ccccc2S1(=O)=O)Nc1cc(Cl)ccc1Cl` (stereo not drawn) the pEC50 was less than 4.74 and the pIC50 was less than 4.74.

With `CCC1=CCN(c2ccc(C)cc2)OC1c1ccc(OC)cc1` (stereo not drawn) the pEC50 was less than 4.49 and the pIC50 was less than 4.49.

`COC(C[C@H]1CCCC[C@]1(O)/C(=C\CO[Si](C(C)C)(C(C)C)C(C)C)Sc1ccccc1)OC` showed a pEC50 of less than 3.70 and a pIC50 of 4.14.

With `CC(C)(C)C1(C#N)C(=O)N(c2ccc(N3C(=O)C(C#N)(C(C)(C)C)C34c3ccccc3-c3ccccc34)cc2)C12c1ccccc1-c1ccccc12` (stereo not drawn) the pEC50 was less than 3.43 and the pIC50 was 3.97.

For `CCOC(=O)[C@@H]1ON2O[C@H](OC3CCCCC3c3ccccc3)C[C@H]3OC(=O)[C@@H]1C32` (stereo partly drawn), the pEC50 was less than 3.70 and the pIC50 was 3.93.

`CCOC(=O)/C(=C/c1ccccc1Br)P(=O)(OCC)OCC` showed a pEC50 of less than 4.04 and a pIC50 of 5.24.

`OC(Nc1ccccn1)(C(F)(F)F)C(F)(F)F` gave a pEC50 of less than 3.70 and a pIC50 of less than 3.70.

`O=S(=O)(O)C(O)CC=C(C(O)S(=O)(=O)O)C(O)S(=O)(=O)O` (stereo not drawn) gave a pEC50 of less than 3.70 and a pIC50 of 4.09.

`CC1(C)CC(=O)c2c(-c3ccc(Cl)cc3)c(C#N)c(=S)n(C3OC(CO)C(O)C(O)C3O)c2C1` (stereo not drawn) showed a pEC50 of less than 3.70 and a pIC50 of 4.50.

`O=C(O)c1ccc(NCc2nc3ccccc3[nH]2)cc1` showed a pEC50 of less than 3.70 and a pIC50 of less than 3.70.

Compound `CC1CC12OC(=O)N(c1cc(Cl)cc(Cl)c1)C2=O` (stereo not drawn) has a pEC50 of less than 3.70 and a pIC50 of 4.50.

In the case of `O=C(CCCN1CCC(O)(c2ccc(Cl)cc2)CC1)c1ccc(F)cc1`, the pEC50 was less than 3.88.

With `C1=CC=C(N=P(c2ccccc2)(c2ccccc2)c2ccccc2)CC=C1` the outcome was “inactive”.

`CC(C)/C(Cl)=N\OC(=O)Nc1ccc(F)cc1F` was tested, and the pEC50 was less than 3.70 and the pIC50 was 5.14.

With `CC1(C)C[N+](C)(C)C2(CCCC2)O1` the pEC50 was less than 3.70 and the pIC50 was less than 3.70.

`O=C(O)[C@@H]1CSC(C(O)CO)N1` (stereo partly drawn) gave a pEC50 of less than 3.70 and a pIC50 of less than 3.70.

With `Cc1ccc(S(=O)(=O)C2CC2(Cl)Cl)cc1` (stereo not drawn) the outcome was “inactive”.

`NCCCC[C@H](NC(=O)[C@H](CS)NC(=O)[C@@H](N)Cc1cnc[nH]1)C(=O)N[C@@H](Cc1ccc(O)cc1)C(=O)N[C@@H](Cc1c[nH]c2ccccc12)C(=O)N[C@@H](Cc1c[nH]c2ccccc12)C(N)=O` was tested, and the pEC50 was less than 3.70 and the pIC50 was less than 3.70.

For `O=c1cc(C(F)(F)F)c2cc3c4c(c2o1)CCCN4CCC3`, the pEC50 was less than 5.33 and the pIC50 was less than 5.33.

Work on `COC1(c2ccccc2)OC(=O)c2ccccc21` (stereo not drawn) yielded a pEC50 of less than 3.70 and a pIC50 of 4.08.

For `O=CC[C@H]1C(=O)C[C@@H]2CCC[C@@H]21`, the pEC50 was less than 3.10 and the pIC50 was 4.35.

For `CCOC(=O)C(=CN1CCNC1=S)C(=O)OCC`, the pEC50 was less than 3.70 and the pIC50 was less than 3.70.

Compound `O=c1[nH]c(-c2nc3ccccc3c(=O)[nH]2)nc2ccccc12` has a pEC50 of less than 4.49 and a pIC50 of less than 4.49.

In the case of `N#CC(/C=C/c1ccccc1)NCCc1ccccc1` (stereo not drawn), the pEC50 was less than 4.98 and the pIC50 was less than 4.98.

In the case of `COC1OC(CO)C2OC12` (stereo not drawn), the pEC50 was less than 3.70 and the pIC50 was less than 3.70.

With `CCOc1nc2sc3c(c2c(=O)n1CCSSCCn1c(OCC)nc2sc4c(c2c1=O)CCCC4)CCCC3` the pEC50 was less than 4.00 and the pIC50 was less than 4.00.
